According to US12599672B2, “KRAS proteolysis targeting chimeras” (PAQ Therapeutics Inc., priority 2023, dated 2026):

What was measured:
Format in all cases: cell-based
[1] = molecular target: T1, KRAS G12D (Homo sapiens, UniProt P01116, G12D); test: KRAS G12D HiBit assay; conditions: AsPc-1-KRAS (G12D)-HiBit-KI cell, compound treatment for 24 hours; for DC50: absolute DC50
T1 construct: AsPc-1-KRAS (G12D)-HiBit-KI cell (Pharmaron); host or cells: AsPc-1-KRAS (G12D)-HiBit-KI cells (HiBiT knock-in at the endogenous KRAS locus)
In short: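 HiBiT luminescence, detected by adding lytic buffer, substrate and LgBiT protein, served as the KRAS G12D read-out. Compounds, serially diluted 3-fold over 10 points from 0.3 mM DMSO stock, were on cells for 24 h; percent inhibition normalized to cells given 0.1% DMSO only.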

[2] = molecular target: T2, KRAS G12V (Homo sapiens, UniProt P01116, G12V); test: KRAS G12V HiBit assay; conditions: SW620-KRAS (G12V)-HiBit-KI cells, compound treatment for 24 hours, class symbols
T2 construct: SW620-KRAS (G12V)-HiBit-KI cell (Pharmaron); host or cells: SW620-KRAS (G12V)-HiBit-KI cells (HiBiT knock-in at the endogenous KRAS locus)
In short: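 Luminescence from lytic Nano-Glo HiBiT detection with LgBiT read KRAS G12V levels after 24 h compound exposure. Dilutions were 10-point, 3-fold, from a 0.3 mM DMSO stock. Degradation activity was normalised to cells given 0.1% DMSO alone.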

[3] = molecular target: T3, KRAS (Homo sapiens, UniProt P01116); test: KRASamp MSD assay; conditions: KE39 (KRAS amplified) cells, treated with test compounds for 24 hr, MSD readout of KRAS degradation
T3 construct: endogenous in cells; host or cells: KE39 (KRAS amplified) cells
Protocol: KE39 (KRAS amplified) cells were cultured in RPMI 1640 medium (Gibco, 11875093), seeded into 96 well plate and treated with test compounds for 24 hr. The cells were washed with PBS and lysed in plate for 1 hr at 4° C. with agitation in RIPA buffer (Cat No. BP-115D) supplemented with protease and phosphatase inhibitor cocktail. The lysates were loaded into MSD plate coated with KRAS capture antibody (LSBio, C175665, 1:1000) for 1 h at RT with agitation. The plate was then washed three times with TBST and incubated with KRAS detection antibody (Abcam, Ab275876. 1:2000) for 1 h at RT. After washing three times with TBST, the plate was incubated with secondary detection antibody GAR (1:500) for 1 hr at RT followed with 3×TBST washing. 2×MSD reading buffer was added into individual wells and the plate was finally read by MSD reader (MSD, SQ 120 MM). The recombinant WT KRAS protein was used for standard curve generation and protein quantification. The degradation activity was calculated using the following formula: […]
DC50 was calculated by fitting the curve using GraphPad Prism v8.0.2 (analysis 263): […]

[4] = numeric bounds given in place of class symbols

T1 sequence (P01116 1-188 isoform P01116-2 G12D): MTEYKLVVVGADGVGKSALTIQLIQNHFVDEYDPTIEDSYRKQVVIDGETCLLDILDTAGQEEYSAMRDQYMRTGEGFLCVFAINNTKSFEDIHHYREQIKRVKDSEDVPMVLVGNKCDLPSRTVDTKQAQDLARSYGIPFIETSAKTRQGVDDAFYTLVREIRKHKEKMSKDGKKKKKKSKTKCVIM
T3 sequence (P01116 1-188 isoform P01116-2): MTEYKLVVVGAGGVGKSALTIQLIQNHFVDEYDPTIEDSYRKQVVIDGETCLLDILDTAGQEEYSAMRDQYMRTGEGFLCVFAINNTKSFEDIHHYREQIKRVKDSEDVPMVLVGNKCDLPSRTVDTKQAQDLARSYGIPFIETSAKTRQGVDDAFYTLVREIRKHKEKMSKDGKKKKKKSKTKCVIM
T2 sequence (P01116 1-188 isoform P01116-2 G12V): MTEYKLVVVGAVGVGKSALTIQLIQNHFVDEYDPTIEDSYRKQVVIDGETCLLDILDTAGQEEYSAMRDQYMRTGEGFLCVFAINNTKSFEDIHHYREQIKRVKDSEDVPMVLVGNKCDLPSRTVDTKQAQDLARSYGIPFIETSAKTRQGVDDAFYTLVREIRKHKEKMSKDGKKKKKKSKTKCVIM

Structure (SMILES)	DC50 ([1]; class symbols) [nM]	DC50 [2] [nM]	DC50 [3] [nM]	DC50 [1, 4] [nM]	Dmax ([1]; class symbols) [%]	Average Dmax ([1]; class symbols)
C#Cc1c(F)ccc2cccc(-c3ncc4c(N5CCC[C@@](C)(O)C5)nc(OCC5(CN6CCC7(CC6)CN(c6ccc8c(c6)n(C)c(=O)n8C6CCC(=O)NC6=O)C7)CC5)nc4c3F)c12 (stereo partly drawn) [Compound 40]	> 300	> 100	≥ 10			
C#Cc1c(F)ccc2cc(O)cc(-c3ncc4c(N5CCCCC5)nc(OCC5(CN6CCN(CC7CCN(c8ccc9c(c8)n(C)c(=O)n9C8CCC(=O)NC8=O)CC7)CC6)CC5)nc4c3F)c12 (stereo not drawn) [Compound 15]	100 to 300	> 100	≥ 10		> 50	
CCc1c(F)ccc2cc(O)cc(-c3ncc4c(N5CC6CC6C5)nc(OC[C@@]56CCCN5[C@H](COC(=O)N5CCC7(CC5)CC(N5CCC(c8ccc9c(c8)n(C)c(=O)n9C8CCC(=O)NC8=O)CC5)C7)CC6)nc4c3F)c12 (stereo partly drawn) [Compound 346, ((3S,7aS)-7a-(((4-(3-azabicyclo[3.1.0]hexan-3-yl)-7-(8-ethyl-7-fluoro-3-hydroxynaphthalen-1-yl)-8-fluoropyrido[4,3-d]pyrimidin-2-yl)oxy)methyl)hexahydro-1H-pyrrolizin-3-yl)methyl 2-(4-(1-(2,6-dioxopiperidin-3-yl)-3-methyl-2-oxo-2,3-dihydro-1H-benzo[d]imidazol-5-yl)piperidin-1-yl)-7-azaspiro[3.5]nonane-7-carboxylate]	< 100	10 to 100	1 to 10			
C#Cc1c(F)ccc2cc(O)cc(-c3ncc4c(N5CCC[C@@](C)(O)C5)nc(OC[C@@]56CCCN5[C@H](COC(=O)N5CCC(CN7CCC(c8ccc9c(c8)n(C)c(=O)n9C8CCC(=O)NC8=O)CC7)CC5)CC6)nc4c3F)c12 (stereo partly drawn) [Compound 4, [(3S,8S)-8-[[7-(8-Ethynyl-7-fluoro-3-hydroxy-1-naphthyl)-8-fluoro-4-[(3R)-3-hydroxy-3-methyl-1-piperidyl]pyrido[4,3-d]pyrimidin-2-yl]oxymethyl]-1,2,3,5,6,7-hexahydropyrrolizin-3-yl]methyl4-[[4-[1-(2,6-dioxo-3-piperidyl)-3-methyl-2-oxo-benzimidazol-5-yl]-1-piperidyl]methyl]piperidine-1-carboxylate]	< 100	< 10	< 1			A (Dmax greater than 50%)
CCc1c(F)ccc2cc(O)cc(-c3ncc4c(N5CCC[C@@](C)(O)C5)nc(OC[C@]56CCCN5[C@H](COC(=O)NC5CCN(c7ccc8c(c7)n(C)c(=O)n8C7CCC(=O)NC7=O)CC5)CC6)nc4c3F)c12 (stereo partly drawn) [Compound 308, ((3S,7aR)-7a-(((7-(8-ethyl-7-fluoro-3-hydroxynaphthalen-1-yl)-8-fluoro-4-((R)-3-hydroxy-3-methylpiperidin-1-yl)pyrido[4,3-d]pyrimidin-2-yl)oxy)methyl)hexahydro-1H-pyrrolizin-3-yl)methyl (1-(1-(2,6-dioxopiperidin-3-yl)-3-methyl-2-oxo-2,3-dihydro-1H-benzo[d]imidazol-5-yl)piperidin-4-yl)carbamate]		10 to 100	< 1	> 100		
C#Cc1c(F)ccc2cc(O)cc(-c3ncc4c(N5CCC[C@@](C)(O)C5)nc(OCC5(CN6CCN(CC7CCN(c8ccc9c(c8)n(C)c(=O)n9C8CCC(=O)NC8=O)CC7)CC6)CC5)nc4c3F)c12 (stereo partly drawn) [Compound 14, 3-[5-[4-[[4-[[1-[[7-(8-Ethynyl-7-fluoro-3-hydroxy-1-naphthyl)-8-fluoro-4-[(3R)-3-hydroxy-3-methyl-1-piperidyl]pyrido[4,3-d]pyrimidin-2-yl]oxymethyl]cyclopropyl]methyl]piperazin-1-yl]methyl]-1-piperidyl]-3-methyl-2-oxo-benzimidazol-1-yl]piperidine-2,6-dione]	< 100	< 10	< 1		> 50	
CCc1c(F)ccc2cc(O)cc(-c3ncc4c(N5CCC[C@@](C)(O)C5)nc(OC[C@@]56CCCN5[C@H](COC(=O)N5CCCC5CN5CCC(c7ccc8c(c7)n(C)c(=O)n8C7CCC(=O)NC7=O)CC5)CC6)nc4c3F)c12 (stereo partly drawn) [Compound 434, ((3S,7aS)-7a-(((7-(8-ethyl-7-fluoro-3-hydroxynaphthalen-1-yl)-8-fluoro-4-((R)-3-hydroxy-3-methylpiperidin-1-yl)pyrido[4,3-d]pyrimidin-2-yl)oxy)methyl)hexahydro-1H-pyrrolizin-3-yl)methyl 2-((4-(1-(2,6-dioxopiperidin-3-yl)-3-methyl-2-oxo-2,3-dihydro-1H-benzo[d]imidazol-5-yl)piperidin-1-yl)methyl)pyrrolidine-1-carboxylate]	< 100	10 to 100	1 to 10			
C#Cc1c(F)ccc2cc(O)cc(-c3ncc4c(N5CCC[C@@](C)(O)C5)nc(OC[C@@]56CCCN5[C@H](COC(=O)N5CCC7(CCC(CN8CCC(c9ccc%10c(c9)n(C)c(=O)n%10C9CCC(=O)NC9=O)CC8)CC7)C5)CC6)nc4c3F)c12 (stereo partly drawn) [Compound 454]	< 100	< 10	< 1			

Second part, led by results:

DC50 ([1]; class symbols) [nM]	DC50 [2] [nM]	DC50 [3] [nM]	DC50 [1, 4] [nM]	Dmax ([1]; class symbols) [%]	Structure (SMILES)	Average Dmax ([1]; class symbols)
< 100	< 10	< 1			CCc1c(F)ccc2cc(O)cc(-c3ncc4c(N5CCC[C@@](C)(O)C5)nc(OC[C@@]56CCCN5[C@H](COC(=O)N5CCC(C7(N8CCC(c9ccc%10c(c9)n(C)c(=O)n%10C9CCC(=O)NC9=O)CC8)CC7)CC5)CC6)nc4c3F)c12 (stereo partly drawn) [Compound 399, ((3S,7aS)-7a-(((7-(8-Ethyl-7-fluoro-3-hydroxynaphthalen-1-yl)-8-fluoro-4-((R)-3-hydroxy-3-methylpiperidin-1-yl)pyrido[4,3-d]pyrimidin-2-yl)oxy)methyl)hexahydro-1H-pyrrolizin-3-yl)methyl 4-(1-(4-(1-(2,6-dioxopiperidin-3-yl)-3-methyl-2-oxo-2,3-dihydro-1H-benzo[d]imidazol-5-yl)piperidin-1-yl)cyclopropyl) piperidine-1-carboxylate]	
	> 100	≥ 10	> 100		CCc1c(F)ccc2cc(O)cc(-c3ncc4c(N5CCC[C@H](N)C5)nc(OC[C@@]56CCCN5[C@H](COC(=O)N5CCC7(CC5)CC(N5CCC(c8ccc9c(c8)n(C)c(=O)n9C8CCC(=O)NC8=O)CC5)C7)CC6)nc4c3F)c12 (stereo partly drawn) [Compound 477, ((3S,7aS)-7a-(((4-((S)-3-aminopiperidin-1-yl)-7-(8-ethyl-7-fluoro-3-hydroxynaphthalen-1-yl)-8-fluoropyrido[4,3-d]pyrimidin-2-yl)oxy)methyl)hexahydro-1H-pyrrolizin-3-yl)methyl 2-(4-(1-(2,6-dioxopiperidin-3-yl)-3-methyl-2-oxo-2,3-dihydro-1H-benzo[d]imidazol-5-yl)piperidin-1-yl)-7-azaspiro[3.5]nonane-7-carboxylate]	
< 100	< 10	< 1			Cn1c(=O)n(C2CCC(=O)NC2=O)c2ccc(C3CCN(C4CC5(CCN(C(=O)OC[C@@H]6CC[C@]7(COc8nc(N9CCC[C@@](C)(O)C9)c9cnc(-c%10cc(O)cc%11ccc(F)cc%10%11)cc9n8)CCCN67)CC5)C4)CC3)cc21 (stereo partly drawn) [Compound 474, ((3S,7aS)-7a-(((7-(7-fluoro-3-hydroxynaphthalen-1-yl)-4-((R)-3-hydroxy-3-methylpiperidin-1-yl)pyrido[4,3-d]pyrimidin-2-yl)oxy)methyl)hexahydro-1H-pyrrolizin-3-yl)methyl 2-(4-(1-(2,6-dioxopiperidin-3-yl)-3-methyl-2-oxo-2,3-dihydro-1H-benzo[d]imidazol-5-yl)piperidin-1-yl)-7-azaspiro[3.5]nonane-7-carboxylate]	
< 100	< 10	1 to 10			C#Cc1c(F)ccc2cc(O)cc(-c3ncc4c(N5CCC[C@@](C)(O)C5)nc(OC[C@@]56CCCN5[C@H](COC(=O)N5CCC7(CC5)CC(CN5CCC(c8ccc9c(c8)n(C)c(=O)n9C8CCC(=O)NC8=O)CC5)C7)CC6)nc4c3F)c12 (stereo partly drawn) [Compound 323, ((3S,7aS)-7a-(((7-(8-ethynyl-7-fluoro-3-hydroxynaphthalen-1-yl)-8-fluoro-4-((R)-3-hydroxy-3-methylpiperidin-1-yl)pyrido[4,3-d]pyrimidin-2-yl)oxy)methyl)hexahydro-1H-pyrrolizin-3-yl)methyl 2-((4-(1-(2,6-dioxopiperidin-3-yl)-3-methyl-2-oxo-2,3-dihydro-1H-benzo[d]imidazol-5-yl)piperidin-1-yl)methyl)-7-azaspiro[3.5]nonane-7-carboxylate]	
